Experimental data: ChEMBL document CHEMBL1139708, “Sesquiterpene lactones are potent and irreversible inhibitors of the antibacterial target enzyme MurA” (Bioorg Med Chem Lett, 2006)
pIC50: −log10 of the molar value. The source made the active and inactive calls. No cut-off for these calls is given here.

Assays:
[1] = target: UDP-N-acetylglucosamine 1-carboxyvinyltransferase (Escherichia coli K-12, UniProt P0A749); assay: Inhibition of Escherichia coli K12 Mur A in presence of UNAG
[2] = target: UDP-N-acetylglucosamine 1-carboxyvinyltransferase (Pseudomonas aeruginosa (strain ATCC 15692 / PAO1 / 1C / PRS 101 / LMG12228), UniProt Q9HVW7); assay: Inhibition of Pseudomonas aeruginosa PAO1293 MurA in presence of UNAG
Chain of UDP-N-acetylglucosamine 1-carboxyvinyltransferase (Pseudomonas aeruginosa (strain ATCC 15692 / PAO1 / 1C / PRS 101 / LMG12228), UniProt Q9HVW7) (Q9HVW7 whole entry): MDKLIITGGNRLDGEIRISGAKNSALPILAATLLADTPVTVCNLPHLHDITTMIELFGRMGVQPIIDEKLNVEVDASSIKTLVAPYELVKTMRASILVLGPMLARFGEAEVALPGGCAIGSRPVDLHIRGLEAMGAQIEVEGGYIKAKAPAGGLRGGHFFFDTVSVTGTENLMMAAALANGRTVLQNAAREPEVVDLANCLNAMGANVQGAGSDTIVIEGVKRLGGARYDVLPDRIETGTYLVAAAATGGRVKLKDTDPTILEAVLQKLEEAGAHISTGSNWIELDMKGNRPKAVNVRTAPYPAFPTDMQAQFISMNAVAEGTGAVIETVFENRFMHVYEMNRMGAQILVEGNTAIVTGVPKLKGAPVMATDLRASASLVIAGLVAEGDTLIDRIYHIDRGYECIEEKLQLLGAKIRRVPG

[3] = system: UDP-N-acetylglucosamine 1-carboxyvinyltransferase (Escherichia coli K-12), P0A749 [C115D]; assay: Inhibition of Escherichia coli K12 Mur A C115D at 50 uM in presence of UNAG
Chain of UDP-N-acetylglucosamine 1-carboxyvinyltransferase (Escherichia coli K-12), P0A749 [C115D] (P0A749 whole entry C115D): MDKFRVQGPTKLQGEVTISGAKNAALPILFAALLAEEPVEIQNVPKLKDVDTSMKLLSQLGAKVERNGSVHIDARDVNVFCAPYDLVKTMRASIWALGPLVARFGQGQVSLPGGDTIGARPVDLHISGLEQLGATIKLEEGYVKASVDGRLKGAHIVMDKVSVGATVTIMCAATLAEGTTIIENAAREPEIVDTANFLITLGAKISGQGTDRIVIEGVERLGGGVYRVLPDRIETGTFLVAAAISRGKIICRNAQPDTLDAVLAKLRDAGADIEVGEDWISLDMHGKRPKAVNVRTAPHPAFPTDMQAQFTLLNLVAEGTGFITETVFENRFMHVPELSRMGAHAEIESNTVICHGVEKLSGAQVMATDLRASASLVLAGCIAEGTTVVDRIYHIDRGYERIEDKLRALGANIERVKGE

[4] = Inhibition of MurA at 5 uM; details: TDE = time-dependent effect
[5] = Inhibition of MurA at 10 uM; details: TDE = time-dependent effect

Chain of UDP-N-acetylglucosamine 1-carboxyvinyltransferase (Escherichia coli K-12, UniProt P0A749) (P0A749 whole entry): as the sequence (P0A749 whole entry C115D) above, with D115C counted along it

Compound | pIC50 [1] | pIC50 [2] | Activity [3] | Activity [4] | Activity [5]
C=C1C(=O)O[C@@H]2/C=C(\C)CC/C=C(\C)CC[C@@H]12 (stereo in doubt; 7) [COSTUNOLIDE] | < 4.30 | < 4.30 | – | – | –
C=C1C(=O)O[C@@H]2/C=C(\CO)CC/C=C(\C)C[C@H](OC(=O)C(=C)[C@H](O)CO)[C@@H]12 [CNICIN] | 4.78 | 4.99 | inactive | tde | –
C=C1C(=O)O[C@@H]2[C@@H]1CC[C@]1(C)CCC=C(C)[C@@H]21 | < 4.30 | < 4.30 | inactive | – | –
C=C1CC[C@H]2C(=C)CC[C@H]3C(=C)C(=O)O[C@@H]3[C@@H]12 [DEHYDROCOSTUSLACTONE] | < 4.30 | < 4.30 | inactive | – | –
C=C1C(=O)O[C@@H]2/C=C(\C)CC/C=C(\C)CC[C@@H]12 (stereo in doubt; 7) | – | – | inactive | – | –
C=C1C(=O)O[C@@H]2/C=C(\C)CC/C=C(\C)CC[C@@H]12 (stereo in doubt; 10) | – | – | inactive | – | –
C=C1C(=O)O[C@@H]2C3O[C@]3(C)CC/C=C(\C)CC[C@@H]12 (some centres undefined) | < 4.30 | 4.56 | inactive | – | –
C=C(CO)C(=O)O[C@H]1CC(=C)[C@@H]2C[C@H](O)C(=C)[C@@H]2[C@H]2OC(=O)C(=C)[C@@H]21 [CYNAROPICRIN] | 4.71 | 4.92 | inactive | tde | –
C=C1C(=O)O[C@@H]2C[C@@]3(C)CCC[C@H](C)C3=C[C@H]12 [HELENINE] | < 4.30 | < 4.30 | inactive | – | –
C=C1C(=O)O[C@@H]2/C=C(\C)CC/C=C(\C)CC[C@@H]12 (stereo in doubt; 10) [COSTUNOLIDE] | < 4.30 | < 4.30 | – | – | –
C[C@@H]1O[C@@H]1P(=O)(O)O [FOSFOMYCIN] | 6.93 | 4.98 | inactive | tde | –
C=C1C(=O)O[C@@H]2/C=C(\C)CC/C=C(/C)C[C@@H](OC(=O)/C(=C/CO)CO)[C@@H]12 [EUPATORIOPICRIN] | 4.49 | 4.70 | inactive | – | tde
